The values that follow come from US20260184710A1, “CASITAS B-LINEAGE LYMPHOMA PROTOONCOGENE B (CBL-B) DEGRADING COMPOUNDS AND ASSOCIATED METHODS OF USE” (Arvinas Operations, Inc., priority 2022, published 2026).

One may read the Dmax as the greatest extent of degradation seen.

The target of experiment [1] is T1, Cbl-b (Homo sapiens, UniProt Q13191).
T1 construct: Cbl-b-HiBit KI Jurkat Cells were purchased from Promega; host or cells: Cbl-b-HiBiT knock-in Jurkat cells
In words: Cbl-b Degradation Method B (Nano-Glo HiBiT lytic detection). In kind it is cell-based. The note with it: Cbl-b-HiBit KI Jurkat Cells, incubated at least 6-24 hours; for DC50: half maximal degradation, read-out: Cbl-b Degredation Method B IC50; for Dmax: read-out: Cbl-b Degredation Method B Dmax (%). In short, it runs like this:
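An 11-point, 3-fold compound dilution was applied for 6-24 hours to Jurkat cells carrying HiBiT-tagged endogenous Cbl-b. Lytic HiBiT luminescence quantified residual protein. Outputs are DC50 and Dmax relative to DMSO control.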
In general terms: HiBiT is a short tag that completes a luciferase, so light tracks the accessible tagged protein.

Experiment [2] addresses T1, Cbl-b. In words: Cbl-b Degradation Method A (FACS, anti-Cbl-b antibody staining). The class given is cell-based. The note with it: Cbl-b-HiBit KI Jurkat Cells, incubated at least 20 hours; for DC50: half maximal degradation, read-out: Cbl-b Degredation Method A IC50; for Dmax: Jurkat, maximum degradation observed, read-out: Cbl-b Degredation Method A Dmax (%). In short, it runs like this: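 Readout is flow cytometry of fixed, permeabilized cells immunostained for Cbl-b (primary 1:200, AF488 secondary). Cells were Cbl-b-HiBit knock-in Jurkat, exposed to compound ≥20 h at 37 °C; half-maximal degradation concentration (DC50) and maximal degradation (Dmax) calculated relative to control.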

T1 sequence (Q13191 whole entry): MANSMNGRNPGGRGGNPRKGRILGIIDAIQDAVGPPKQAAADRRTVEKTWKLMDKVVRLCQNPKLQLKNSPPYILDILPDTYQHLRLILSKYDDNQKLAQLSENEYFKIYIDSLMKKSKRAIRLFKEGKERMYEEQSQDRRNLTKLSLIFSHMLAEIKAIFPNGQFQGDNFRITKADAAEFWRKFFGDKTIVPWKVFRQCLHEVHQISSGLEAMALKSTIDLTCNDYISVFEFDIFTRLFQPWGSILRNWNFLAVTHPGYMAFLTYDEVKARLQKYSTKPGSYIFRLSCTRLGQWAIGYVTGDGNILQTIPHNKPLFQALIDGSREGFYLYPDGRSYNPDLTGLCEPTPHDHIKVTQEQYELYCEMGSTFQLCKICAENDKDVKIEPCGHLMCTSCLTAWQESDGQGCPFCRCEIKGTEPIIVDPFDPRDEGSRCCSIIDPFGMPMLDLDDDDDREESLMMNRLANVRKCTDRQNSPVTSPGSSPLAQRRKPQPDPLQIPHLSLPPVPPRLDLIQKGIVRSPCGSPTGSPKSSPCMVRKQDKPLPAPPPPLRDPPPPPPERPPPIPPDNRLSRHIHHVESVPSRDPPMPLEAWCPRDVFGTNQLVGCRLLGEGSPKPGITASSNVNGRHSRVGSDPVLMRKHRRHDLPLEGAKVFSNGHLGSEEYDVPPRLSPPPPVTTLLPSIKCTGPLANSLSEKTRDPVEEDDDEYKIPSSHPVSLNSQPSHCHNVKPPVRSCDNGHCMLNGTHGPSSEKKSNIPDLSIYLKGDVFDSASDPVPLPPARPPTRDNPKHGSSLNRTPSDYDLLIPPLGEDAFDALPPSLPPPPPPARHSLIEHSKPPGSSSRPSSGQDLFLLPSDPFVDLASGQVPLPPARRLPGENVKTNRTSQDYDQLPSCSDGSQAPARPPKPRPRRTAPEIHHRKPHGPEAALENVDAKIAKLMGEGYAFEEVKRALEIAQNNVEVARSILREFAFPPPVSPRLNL

With `Cn1cnnc1CC1(c2cccc(N3Cc4c(cc(N5CC(C6CCN(c7ccc8c(c7)C(=O)N(C7CCC(=O)NC7=O)C8=O)CC6)C5)cc4C(F)(F)F)C3=O)c2)COC1` (stereo not drawn) [Example 129, 2-(2,6-dioxopiperidin-3-yl)-5-(4-{1-[2-(3-{3-[(4-methyl-4H-1,2,4-triazol-3-yl)methyl]oxetan-3-yl}phenyl)-3-oxo-7-(trifluoromethyl)-2,3-dihydro-1H-isoindol-5-yl]azetidin-3-yl}piperidin-1-yl)-2,3-dihydro-1H-isoindole-1,3-dione], the DC50 is more than 500 nM at Cbl-b [1] and 50 to 500 nM on Cbl-b [2].
For the compound `CC1c2nc(N3CCC(O[C@H]4CC[C@H](CN5C[C@@H]6C[C@H]5CN6Cc5cc6c(c(C(F)(F)F)c5)CN(c5cccc([C@]7(Cc8nncn8C)C[C@H](C#N)C7)c5)C6=O)CC4)CC3)ccc2C(=O)N1C1CCC(=O)NC1=O` (stereo partly drawn) [Example 214, (1r,3r)-3-[(4-methyl-4H-1,2,4-triazol-3-yl)methyl]-3-[3-(1-oxo-6-{[(1S,4S)-5-{[(1r,4r)-4-({1-[6-(2,6-dioxopiperidin-3-yl)-7-methyl-5-oxo-5H,6H,7H-pyrrolo[3,4-b]pyridin-2-yl]piperidin-4-yl}oxy)cyclohexyl]methyl}-2,5-diazabicyclo[2.2.1]heptan-2-yl]methyl}-4-(trifluoromethyl)-2,3-dihydro-1H-isoindol-2-yl)phenyl]cyclobutane-1-carbonitrile], the DC50 at Cbl-b [1] is less than 5 nM; at Cbl-b [2], 5 to 50 nM. Also, the Dmax on Cbl-b [1] (maximum degradation observed) and on Cbl-b [2] was 35 to 70% each time.
For the compound `COc1c(N2CCC(O[C@H]3CC[C@H](CN4CCC5(CC4)CN(c4cc6c(c(C(F)(F)F)c4)CN(c4cccc(C7(Cc8nncn8C)COC7)c4)C6=O)C5)CC3)CC2)ccc2c1CN(C1CCC(=O)NC1=O)C2=O` (stereo partly drawn) [Example 169, 3-[4-methoxy-1-oxo-5-(4-{[(1r,4r)-4-({2-[2-(3-{3-[(4-methyl-4H-1,2,4-triazol-3-yl)methyl]oxetan-3-yl}phenyl)-3-oxo-7-(trifluoromethyl)-2,3-dihydro-1H-isoindol-5-yl]-2,7-diazaspiro[3.5]nonan-7-yl}methyl)cyclohexyl]oxy}piperidin-1-yl)-2,3-dihydro-1H-isoindol-2-yl]piperidine-2,6-dione], the DC50 on Cbl-b [1] was less than 5 nM; on Cbl-b [2] it was 5 to 50 nM. Moreover, the Dmax on Cbl-b [1] (maximum degradation observed) and at Cbl-b [2] was more than 70% in each case.
Turning to `Cn1cnnc1CC1(c2cccc(N3Cc4c(cc(N5CC6(CCN(CC7CN(c8ccc9c(c8)C(=O)N(C8CCC(=O)NC8=O)C9=O)C7)CC6)C5)cc4C(F)(F)F)C3=O)c2)COC1` (stereo not drawn) [Example 132, 2-(2,6-dioxopiperidin-3-yl)-5-[3-({2-[2-(3-{3-[(4-methyl-4H-1,2,4-triazol-3-yl)methyl]oxetan-3-yl}phenyl)-3-oxo-7-(trifluoromethyl)-2,3-dihydro-1H-isoindol-5-yl]-2,7-diazaspiro[3.5]nonan-7-yl}methyl)azetidin-1-yl]-2,3-dihydro-1H-isoindole-1,3-dione], the DC50 on Cbl-b [1] is less than 5 nM; on Cbl-b [2] it was 5 to 50 nM. Also, the Dmax at Cbl-b [1] (maximum degradation observed) and on Cbl-b [2] was 35 to 70% in each case.
`Cn1cnnc1CC1(c2cccc(NC(=O)c3cc(CN4CCC[C@H](CN5CCC(CN6CCN(c7ccc8c(c7)C(=O)N(C7CCC(=O)NC7=O)C8=O)CC6)CC5)C4)nc(C4CC4)n3)c2)COC1` (stereo partly drawn) [Example 19, 2-cyclopropyl-6-[[(3R)-3-[[4-[[4-[2-(2,6-dioxo-3-piperidyl)-1,3-dioxo-isoindolin-5-yl]piperazin-1-yl]methyl]-1-piperidyl]methyl]-1-piperidyl]methyl]-N-[3-[3-[(4-methyl-1,2,4-triazol-3-yl)methyl]oxetan-3-yl]phenyl]pyrimidine-4-carboxamide]: the DC50 on Cbl-b [1] is less than 5 nM; at Cbl-b [2], 50 to 500 nM. Besides, the Dmax on Cbl-b [1] (maximum degradation observed) was less than 35%.
`C[C@@H]1c2nc(N3CCC(O[C@H]4CC[C@H](CN5CCN(Cc6cc7c(c(C(F)(F)F)c6)CN(c6cccc(C8(Cc9nncn9C)CC(C#N)C8)c6)C7=O)C(C)(C)C5)CC4)CC3)ccc2C(=O)N1C1CCC(=O)NC1=O` (single isomer, unassigned) [Example 306, (1r***,3r***)-3-(3-{6-[(2,2-dimethyl-4-{[(1r**,4r**)-4-({1-[(7R*)-6-(2,6-dioxopiperidin-3-yl)-7-methyl-5-oxo-5H,6H,7H-pyrrolo[3,4-b]pyridin-2-yl]piperidin-4-yl}oxy)cyclohexyl]methyl}piperazin-1-yl)methyl]-1-oxo-4-(trifluoromethyl)-2,3-dihydro-1H-isoindol-2-yl}phenyl)-3-[(4-methyl-4H-1,2,4-triazol-3-yl)methyl]cyclobutane-1-carbonitrile]: the DC50 at Cbl-b [1] is less than 5 nM; on Cbl-b [2], 50 to 500 nM. The “Cbl-b Degredation Method B Dmax (%)” value on Cbl-b [1] (maximum degradation observed) is “C (C ≤ 35)”. On Cbl-b [2], the Dmax lay in the range of 35 to 70%.
On to `CC1CN(C[C@H]2CC[C@H](OC3CCN(c4ccc5c(n4)C(C)N(C4CCC(=O)NC4=O)C5=O)CC3)CC2)CCN1Cc1cc2c(c(C(F)(F)F)c1)CN(c1cccc([C@]3(Cc4nncn4C)C[C@@H](C#N)C3)c1)C2=O` (stereo partly drawn) [Example 208, (1r,3r)-3-(3-{6-[(2-methyl-4-{[(1r,4r)-4-({1-[6-(2,6-dioxopiperidin-3-yl)-7-methyl-5-oxo-5H,6H,7H-pyrrolo[3,4-b]pyridin-2-yl]piperidin-4-yl}oxy)cyclohexyl]methyl}piperazin-1-yl)methyl]-1-oxo-4-(trifluoromethyl)-2,3-dihydro-1H-isoindol-2-yl}phenyl)-3-[(4-methyl-4H-1,2,4-triazol-3-yl)methyl]cyclobutane-1-carbonitrile], for which the DC50 is less than 5 nM at Cbl-b [1] and 5 to 50 nM at Cbl-b [2]. Also, the Dmax at Cbl-b [1] (maximum degradation observed) and on Cbl-b [2] was 35 to 70% each time.
As to `Cn1cnnc1CC1(c2cccc(N3Cc4c(cc(N5CC6(CCN(c7cc8c(cc7F)C(=O)N(C7CCC(=O)NC7=O)C8=O)CC6)C5)cc4C(F)(F)F)C3=O)c2)COC1` (stereo not drawn) [Example 116, 2-(2,6-dioxopiperidin-3-yl)-5-fluoro-6-{2-[2-(3-{3-[(4-methyl-4H-1,2,4-triazol-3-yl)methyl]oxetan-3-yl}phenyl)-3-oxo-7-(trifluoromethyl)-2,3-dihydro-1H-isoindol-5-yl]-2,7-diazaspiro[3.5]nonan-7-yl}-2,3-dihydro-1H-isoindole-1,3-dione], the DC50 at Cbl-b [1] and at Cbl-b [2] was more than 500 nM in each case.
In the case of `Cn1cnnc1CC1(c2cccc(N3Cc4c(cc(N5CC6(CCN(CC7CCN(c8ccc9c(n8)CN(C8CCC(=O)NC8=O)C9=O)CC7)CC6)C5)cc4C(F)(F)F)C3=O)c2)COC1` (stereo not drawn) [Example 131, 3-{2-[4-({2-[2-(3-{3-[(4-methyl-4H-1,2,4-triazol-3-yl)methyl]oxetan-3-yl}phenyl)-3-oxo-7-(trifluoromethyl)-2,3-dihydro-1H-isoindol-5-yl]-2,7-diazaspiro[3.5]nonan-7-yl}methyl)piperidin-1-yl]-5-oxo-5H,6H,7H-pyrrolo[3,4-b]pyridin-6-yl}piperidine-2,6-dione], the DC50 on Cbl-b [1] is less than 5 nM; on Cbl-b [2], 5 to 50 nM. The Dmax at Cbl-b [1] (maximum degradation observed) and on Cbl-b [2] was 35 to 70% throughout.
For the compound `Cn1cnnc1CC1(c2cccc(N3Cc4c(cc(CN5CCC(CC6CN(c7ccc8c(c7)C(=O)N(C7CCC(=O)NC7=O)C8=O)C6)CC5)cc4C(F)(F)F)C3=O)c2)COC1` (stereo not drawn) [Example 79, 2-(2,6-dioxopiperidin-3-yl)-5-{3-[(1-{[2-(3-{3-[(4-methyl-4H-1,2,4-triazol-3-yl)methyl]oxetan-3-yl}phenyl)-3-oxo-7-(trifluoromethyl)-2,3-dihydro-1H-isoindol-5-yl]methyl}piperidin-4-yl)methyl]azetidin-1-yl}-2,3-dihydro-1H-isoindole-1,3-dione], the DC50 on Cbl-b [1] and at Cbl-b [2] was more than 500 nM in each case.
For `COc1c(N2CCC(O[C@H]3CC[C@H](CN4CCN(Cc5cc6c(c(C(F)(F)F)c5)CN(c5cccc(C7(Cc8nncn8C)COC7)c5)C6=O)CC4)CC3)CC2)ccc2c1CN(C1CCC(=O)NC1=O)C2=O` (stereo partly drawn) [Example 193, 3-[4-methoxy-1-oxo-5-(4-{[(1r,4r)-4-[(4-{[2-(3-{3-[(4-methyl-4H-1,2,4-triazol-3-yl)methyl]oxetan-3-yl}phenyl)-3-oxo-7-(trifluoromethyl)-2,3-dihydro-1H-isoindol-5-yl]methyl}piperazin-1-yl)methyl]cyclohexyl]oxy}piperidin-1-yl)-2,3-dihydro-1H-isoindol-2-yl]piperidine-2,6-dione], the DC50 on Cbl-b [1] and on Cbl-b [2] was less than 5 nM each time. Also, the Dmax on Cbl-b [1] (maximum degradation observed) was 35 to 70%; at Cbl-b [2] it was more than 70%.
Consider `Cn1cnnc1CC1(c2cccc(N3Cc4c(cc(N5CC6(CCN(Cc7ccc8c(c7)C(=O)N(C7CCC(=O)NC7=O)C8=O)CC6)C5)cc4C(F)(F)F)C3=O)c2)COC1` (stereo not drawn) [Example 130, 2-(2,6-dioxopiperidin-3-yl)-5-({2-[2-(3-{3-[(4-methyl-4H-1,2,4-triazol-3-yl)methyl]oxetan-3-yl}phenyl)-3-oxo-7-(trifluoromethyl)-2,3-dihydro-1H-isoindol-5-yl]-2,7-diazaspiro[3.5]nonan-7-yl}methyl)-2,3-dihydro-1H-isoindole-1,3-dione], for which the DC50 on Cbl-b [1] and on Cbl-b [2] was more than 500 nM in each case.
